Experimental data reported in patent US20240050428A1 (Cullgen (Shanghai), Inc., priority 2020, published 2024).
Where two headings read alike, the source gives them in different places.

How the values were obtained:
MOLM-13 cells = experiment: Cell viability assay (CellTiter-Glo) in MOLM-13 cells, alone or with gilteritinib; type: cell-based; conditions: Homo sapiens, MOLM-13, 72 h, MOLM-13 cells, three days, CellTiter-Glo
MV4;11 cells = experiment: Cell viability assay (CellTiter-Glo) in MV4;11 cells, alone or with gilteritinib; type: cell-based; conditions: Homo sapiens, MV4-11, 72 h, MV4;11 cells, three days, CellTiter-Glo, read-out: MV4
[1] = compound alone (without gilteritinib), read-out: MOLM-13 IC50
[2] = compound with gilteritinib 20 nM, read-out: MOLM-13 IC50 gilteritinib
[3] = compound alone (without gilteritinib), 11 IC50
[4] = compound with gilteritinib 10 nM, 11 IC50 gilteritinib

Row | SMILES | IC50 (MOLM-13 cells; [1]) | IC50 (MOLM-13 cells; [2]) | IC50 (MV4;11 cells; [3]) | IC50 (MV4;11 cells; [4])
1 | O=C1CCC(N2C(=O)c3ccc(NC[C@H]4C[C@H](n5cc(-c6ncccc6N6CCNCC6)c(C6CC6)n5)C4)cc3C2=O)C(=O)N1 (stereo partly drawn) [GS-604, 5-(((trans-3-(3-cyclopropyl-4-(3-(piperazin-1-yl)pyridin-2-yl)-1H-pyrazol-1-yl)cyclobutyl)methyl)amino)-2-(2,6-dioxopiperidin-3-yl)isoindoline-1,3-dione] | 0.01 to 0.1 µM | < 0.01 µM | 0.01 to 0.1 µM | < 0.01 µM
2 | O=C1CCC(N2C(=O)c3ccc(NC[C@H]4C[C@H](n5cc(-c6cccc(C7CNC7)n6)c(C6CC6)n5)C4)cc3C2=O)C(=O)N1 (stereo partly drawn) [GS-605, 5-(((trans-3-(4-(6-(Azetidin-3-yl)pyridin-2-yl)-3-cyclopropyl-1H-pyrazol-1-yl)cyclobutyl)methyl)amino)-2-(2,6-dioxopiperidin-3-yl)isoindoline-1,3-dione] | > 1 µM | > 1 µM | > 1 µM | > 1 µM
3 | CN(C)c1ccnc(-c2cn([C@H]3C[C@H](CNc4ccc5c(c4)C(=O)N(C4CCC(=O)NC4=O)C5=O)C3)nc2C2CC2)c1 (stereo partly drawn) [GS-606, 5-(((trans-3-(3-Cyclopropyl-4-(4-(dimethylamino)pyridin-2-yl)-1H-pyrazol-1-yl)cyclobutyl)methyl)amino)-2-(2,6-dioxopiperidin-3-yl)isoindoline-1,3-dione] | > 1 µM | > 1 µM | > 1 µM | > 1 µM
4 | O=C1CCC(N2C(=O)c3ccc(NC[C@H]4C[C@H](n5cc(-c6cc(N7CCNCC7)ccn6)c(C6CC6)n5)C4)cc3C2=O)C(=O)N1 (stereo partly drawn) [GS-607, 5-(((trans-3-(3-Cyclopropyl-4-(4-(piperazin-1-yl)pyridin-2-yl)-1H-pyrazol-1-yl)cyclobutyl)methyl)amino)-2-(2,6-dioxopiperidin-3-yl)isoindoline-1,3-dione] | > 1 µM | > 1 µM | > 1 µM | > 1 µM
5 | CN1CCN(c2ccnc(-c3cn([C@H]4C[C@H](CNc5ccc6c(c5)C(=O)N(C5CCC(=O)NC5=O)C6=O)C4)nc3C3CC3)c2)CC1 (stereo partly drawn) [GS-608, 5-(((trans-3-(3-Cyclopropyl-4-(4-(4-methylpiperazin-1-yl)pyridin-2-yl)-1H-pyrazol-1-yl)cyclobutyl)methyl)amino)-2-(2,6-dioxopiperidin-3-yl)isoindoline-1,3-dione] | > 1 µM | > 1 µM | > 1 µM | > 1 µM
6 | Cc1nc(-c2cn([C@H]3C[C@H](CNc4ccc5c(c4)C(=O)N(C4CCC(=O)NC4=O)C5=O)C3)nc2C2CC2)ccc1Cl (stereo partly drawn) [GS-609, 5-(((trans-3-(4-(5-Chloro-6-methylpyridin-2-yl)-3-cyclopropyl-1H-pyrazol-1-yl)cyclobutyl)methyl)amino)-2-(2,6-dioxopiperidin-3-yl)isoindoline-1,3-dione] | 0.01 to 0.1 µM | < 0.01 µM | 0.01 to 0.1 µM | < 0.01 µM
7 | O=C1CCC(N2C(=O)c3ccc(NC[C@H]4C[C@H](n5cc(-c6cnc7c(N8CC(O)C8)cccc7n6)c(C6CC6)n5)C4)cc3C2=O)C(=O)N1 (stereo partly drawn) [GS-610] | < 0.01 µM | < 0.01 µM | < 0.01 µM | < 0.01 µM
8 | Cn1ncc2c(-c3cn([C@H]4C[C@H](CNc5ccc6c(c5)C(=O)N(C5CCC(=O)NC5=O)C6=O)C4)nc3C3CC3)nccc21 (stereo partly drawn) [GS-611, 5-(((trans-3-(3-Cyclopropyl-4-(1-methyl-1H-pyrazolo[4,3-c]pyridin-4-yl)-1H-pyrazol-1-yl)cyclobutyl)methyl)amino)-2-(2,6-dioxopiperidin-3-yl)isoindoline-1,3-dione] | < 0.01 µM | < 0.01 µM | < 0.01 µM | < 0.01 µM
9 | CC(C)n1ncc2c(-c3cn([C@H]4C[C@H](CNc5ccc6c(c5)C(=O)N(C5CCC(=O)NC5=O)C6=O)C4)nc3C3CC3)nccc21 (stereo partly drawn) [GS-612, 5-(((trans-3-(3-Cyclopropyl-4-(1-isopropyl-1H-pyrazolo[4,3-c]pyridin-4-yl)-1H-pyrazol-1-yl)cyclobutyl)methyl)amino)-2-(2,6-dioxopiperidin-3-yl)isoindoline-1,3-dione] | < 0.01 µM | < 0.01 µM | < 0.01 µM | < 0.01 µM
10 | Cn1ncc2cnc(-c3cn([C@H]4C[C@H](CNc5ccc6c(c5)C(=O)N(C5CCC(=O)NC5=O)C6=O)C4)nc3C3CC3)cc21 (stereo partly drawn) [GS-613, 5-(((trans-3-(3-Cyclopropyl-4-(1-methyl-1H-pyrazolo[4,3-c]pyridin-6-yl)-1H-pyrazol-1-yl)cyclobutyl)methyl)amino)-2-(2,6-dioxopiperidin-3-yl)isoindoline-1,3-dione] | 0.01 to 0.1 µM | < 0.01 µM | < 0.01 µM | < 0.01 µM
11 | CC(C)n1ncc2cnc(-c3cn([C@H]4C[C@H](CNc5ccc6c(c5)C(=O)N(C5CCC(=O)NC5=O)C6=O)C4)nc3C3CC3)cc21 (stereo partly drawn) [GS-614, 5-(((trans-3-(3-Cyclopropyl-4-(1-isopropyl-1H-pyrazolo[4,3-c]pyridin-6-yl)-1H-pyrazol-1-yl)cyclobutyl)methyl)amino)-2-(2,6-dioxopiperidin-3-yl)isoindoline-1,3-dione] | 0.01 to 0.1 µM | < 0.01 µM | < 0.01 µM | < 0.01 µM
12 | Cn1ccc2c(-c3cn([C@H]4C[C@H](CNc5ccc6c(c5)C(=O)N(C5CCC(=O)NC5=O)C6=O)C4)nc3C3CC3)nccc21 (stereo partly drawn) [GS-615, 5-(((trans-3-(3-Cyclopropyl-4-(1-methyl-1H-pyrrolo[3,2-c]pyridin-4-yl)-1H-pyrazol-1-yl)cyclobutyl)methyl)amino)-2-(2,6-dioxopiperidin-3-yl)isoindoline-1,3-dione] | 0.01 to 0.1 µM | < 0.01 µM | 0.01 to 0.1 µM | < 0.01 µM
13 | O=C1CCC(N2C(=O)c3ccc(NC[C@H]4C[C@H](n5cc(-c6ccc7c(n6)CCC7)c(C6CC6)n5)C4)cc3C2=O)C(=O)N1 (stereo partly drawn) [GS-616, 5-(((trans-3-(3-Cyclopropyl-4-(6,7-dihydro-5H-cyclopenta[b]pyridin-2-yl)-1H-pyrazol-1-yl)cyclobutyl)methyl)amino)-2-(2,6-dioxopiperidin-3-yl)isoindoline-1,3-dione] | 0.01 to 0.1 µM | < 0.01 µM | 0.01 to 0.1 µM | < 0.01 µM
14 | CN1CCC(Nc2cccnc2-c2cn([C@H]3C[C@H](CNc4ccc5c(c4)C(=O)N(C4CCC(=O)NC4=O)C5=O)C3)nc2C2CC2)CC1 (stereo partly drawn) [GS-617, 5-(((trans-3-(3-Cyclopropyl-4-(3-((1-methylpiperidin-4-yl)amino)pyridin-2-yl)-1H-pyrazol-1-yl)cyclobutyl)methyl)amino)-2-(2,6-dioxopiperidin-3-yl)isoindoline-1,3-dione] | > 1 µM | > 1 µM | > 1 µM | > 1 µM
15 | Cn1ccc2cnc(-c3cn([C@H]4C[C@H](CNc5ccc6c(c5)C(=O)N(C5CCC(=O)NC5=O)C6=O)C4)nc3C3CC3)cc21 (stereo partly drawn) [GS-618, 5-(((trans-3-(3-Cyclopropyl-4-(1-methyl-1H-pyrrolo[3,2-c]pyridin-6-yl)-1H-pyrazol-1-yl)cyclobutyl)methyl)amino)-2-(2,6-dioxopiperidin-3-yl)isoindoline-1,3-dione] | 0.01 to 0.1 µM | < 0.01 µM | < 0.01 µM | < 0.01 µM
